Assay results published in the NIST ThermoML archive (doi:10.1016/j.jct.2014.11.007).
± gives the expanded uncertainty stated by the source.

Tests used:
[1] = mn = molality of the nth substance listed, in mol/kg; conditions: 100 kPa, Liquid; for speed of sound: Frequency=3 MHz, Sing-around technique in a fixed-path interferometer; for mass density: Vibrating tube method
[2] = 100 kPa, Liquid, Vibrating tube method

O=C(O)[C@@H]1CCCN1 [L-proline] + O
[1]
Conditions | mass density, 293.15 K [kg/m3] | mass density, 298.15 K [kg/m3] | mass density, 303.15 K [kg/m3] | mass density, 308.15 K [kg/m3] | mass density, 313.15 K [kg/m3] | speed of sound, 293.15 K [m/s] | speed of sound, 298.15 K [m/s] | speed of sound, 303.15 K [m/s] | speed of sound, 308.15 K [m/s] | speed of sound, 313.15 K [m/s]
m1 = 0.01 | 998.631 ± 0.26 | 997.474 ± 0.26 | 996.082 ± 0.26 | 994.462 ± 0.26 | 992.639 ± 0.26 | 1483.8 ± 1.6 | 1497.8 ± 1.6 | 1510.1 ± 1.6 | 1520.7 ± 1.6 | 1529.8 ± 1.6
m1 = 0.03 | 999.275 ± 0.26 | 998.109 ± 0.26 | 996.709 ± 0.26 | 995.083 ± 0.26 | 993.259 ± 0.26 | 1485.8 ± 1.6 | 1499.8 ± 1.6 | 1511.8 ± 1.6 | 1522.4 ± 1.6 | 1531.4 ± 1.6
m1 = 0.05 | 999.919 ± 0.26 | 998.747 ± 0.26 | 997.338 ± 0.26 | 995.708 ± 0.26 | 993.88 ± 0.26 | 1487.4 ± 1.6 | 1501 ± 1.6 | 1512.9 ± 1.6 | 1523.5 ± 1.6 | 1532.3 ± 1.6

O [water]
[2]
Conditions | mass density [kg/m3]
293.15 K | 998.272 ± 0.2
308.15 K | 994.108 ± 0.2
313.15 K | 992.29 ± 0.2

NCC(=O)O [2-aminoacetic acid] + O
[1]
Conditions | mass density, 293.15 K [kg/m3] | mass density, 298.15 K [kg/m3] | mass density, 303.15 K [kg/m3] | mass density, 308.15 K [kg/m3] | mass density, 313.15 K [kg/m3] | speed of sound, 293.15 K [m/s] | speed of sound, 298.15 K [m/s] | speed of sound, 303.15 K [m/s] | speed of sound, 308.15 K [m/s] | speed of sound, 313.15 K [m/s]
m1 = 0.01 | – | 997.478 ± 0.2 | – | – | – | 1483.7 ± 1.5 | 1497.8 ± 1.5 | 1510.2 ± 1.5 | 1520.8 ± 1.5 | 1529.8 ± 1.5
m1 = 0.03 | 999.313 ± 0.2 | 998.145 ± 0.2 | 996.744 ± 0.2 | 995.118 ± 0.2 | 993.306 ± 0.2 | 1484.5 ± 1.5 | 1498.5 ± 1.5 | 1510.9 ± 1.5 | 1521.5 ± 1.5 | 1530.5 ± 1.5
m1 = 0.05 | 999.93 ± 0.2 | 998.761 ± 0.2 | 997.353 ± 0.2 | – | 993.898 ± 0.2 | 1485.7 ± 1.5 | 1499.6 ± 1.5 | 1511.9 ± 1.5 | 1522.5 ± 1.5 | 1531.5 ± 1.5
